This passage reports melting point, IC50 and Ratio antagonist results from US6743796B2, “Piperazinyl-isatins” (Wyeth, priority 2001, dated 2004).

Series [1] deals with T1, dopamine autoreceptor (D2 Quin.) (Rattus norvegicus, UniProt P61169).
T1 construct: from tissue; host or cells: rat striatal brain tissue homogenate
Put plainly: Affinity for the dopamine autoreceptor: [3H]-quinpirole binding in homogenized rat striatal brain tissue. Conditions: rat striatal brain tissue (high-affinity agonist state). How it is done: Affinity for the dopamine autoreceptor was established by a modification of the standard pharmacological test procedure of Seemen and Schaus, European Journal of Pharmacology 203: 105-109, 1991, wherein homogenized rat striatal brain tissue is incubated with [^3H]-quinpirole (Quin.) at various concentrations of test compound, filtered, washed and counted in a Betaplate scintillation counter.

The next series deals with dopamine D2 receptor. Put plainly: Affinity for the dopamine D2 receptor: [3H]-spiperidone binding in homogenized limbic brain tissue. Conditions: ratio of IC50 D2 Spiper to IC50 D2 Quin. (LowAg/HighAg). How it is done: High affinity for the dopamine D2 receptor was established by the standard pharmacological test procedure of Fields, et al., Brain Res., 136, […] (1977) and Yamamura et al., ed., Neurotransmitter Receptor Binding, Raven Press, N.Y. (1978) wherein homogenized limbic brain tissue is incubated with [^3H]-spiperidone at various concentrations of test compound, filtered washed, and shaken with Hydrofluor scintillation cocktail (National Diagnostics) and counted in a Packard 460 CD scintillation counter.

Where a name gives a salt, the structure may show the parent alone.

T1 sequence (P61169 whole entry): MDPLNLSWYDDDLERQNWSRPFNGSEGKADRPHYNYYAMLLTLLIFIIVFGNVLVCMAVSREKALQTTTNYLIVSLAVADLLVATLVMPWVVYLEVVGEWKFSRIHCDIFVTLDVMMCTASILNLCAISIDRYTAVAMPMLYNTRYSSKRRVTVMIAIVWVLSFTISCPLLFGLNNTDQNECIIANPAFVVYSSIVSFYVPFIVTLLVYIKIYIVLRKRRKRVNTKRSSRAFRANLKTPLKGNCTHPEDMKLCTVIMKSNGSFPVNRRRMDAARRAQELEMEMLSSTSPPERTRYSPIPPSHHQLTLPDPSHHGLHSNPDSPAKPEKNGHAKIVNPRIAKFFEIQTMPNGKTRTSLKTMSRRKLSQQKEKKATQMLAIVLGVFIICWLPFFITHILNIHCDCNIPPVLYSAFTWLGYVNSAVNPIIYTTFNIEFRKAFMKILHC

As usually defined, the melting point is the temperature, or range, at which the solid turns liquid. `O=C1Nc2cccc(N3CCN(Cc4ccccc4)CC3)c2C1=O` (as salt: fumarate) (hydrate or solvate) [Example V, 4-(4-Benzyl-piperazin-1-yl)-1H-indole-2,3-dione] came in with a melting point of 118 to 120 °C.

For orientation: IC50 means the midpoint of a concentration-inhibition curve. A lower IC50 goes with higher potency. In series [1], `O=C1Nc2cccc(N3CCN(Cc4ccccc4)CC3)c2C1=O` [Example V, 4-(4-Benzyl-piperazin-1-yl)-1H-indole-2,3-dione] registered an IC50 of 0.57 ± 0.2 nM. The Ratio antagonist with dopamine D2 receptor stood at 149.
